Earlier results as cited in patent US4906471A (priority 1989, dated 1990).

How the values were obtained:
[1] = tested on: trasient ischemic attacks; details: in men; prior art statement

Molecule | side effects / toxic effects (patients) | side effects at low doses (patients) | incidence of transient ischemic attacks [1] | side effects at higher doses (patients) | side effects at usual dosage (patients; usual dosage, prior art statement)
Neomycin | high toxicity | nausea, abdonimal cramps, diarrhea and malabsorption | – | – | –
CC(=O)Oc1ccccc1C(=O)O [Aspirin] | – | – | decrease the incidence of trasient ischemic attacks | tinnitus, decreased hearing and vertigo | gastric intolerance
colestipol | constipation and bloating sensation; some times hearburn and diarrhea | – | – | – | –
